From patent publication US20210322508A1, “PEPTIDES AND COMPOSITIONS FOR TARGETED TREATMENT AND IMAGING” (SIGNABLOK, INC., priority 2018, published 2021) come the findings set out here.

Residues, ends and D or L forms follow the SMILES beside them.

Data set [1] relates to C57BL/6J neonatal mice with oxygen-induced retinopathy. Put plainly: Oxygen-induced retinopathy (OIR): pathological retinal neovascularization. It is filed as in vivo. Here is the method: Litters of C57BL/6J (Jackson Laboratory, Bar Harbor, Me.) neonatal mice and nursing dams were exposed to a hyperoxia environment (75% oxygen) from postnatal day 7 (P7) to P12 and returned to normoxia until P17. The hyperoxia exposure causes degeneration of the immature retinal vessels. […] Beginning on P7, mice were treated until day P17 by daily i.p. injections of GF9, GF9-SLP, TREM-1/TRIOPEP-sSLP or vehicle (phosphate-buffered saline, pH 7.4; PBS). […] In another subset of experiments, rho B-labeled Gd-containing sSLP were used to confirm the ability of these targeted SLP to cross the BRB in other species (rats and rabbits). In another subset of experiments, neonatal mice and nursing dams were not subjected to a hyperoxia environment and reared in room air (RA). […]
Treatment effects on vaso-obliteration and pathological angiogenesis were assessed by morphometric analysis of the avascular and neovascularization areas in retinal flat mounts after labeling with isolectin B4 as described in Patel, et al. Am J Pathol 2014, 184:3040-3051. […] After washing 3 times with PBS, the images were captured with a 20× lens using a Zeiss Axioplan2 fluorescence microscope (Carl Zeiss Meditec, Inc., Dublin, Calif.). Intravitreal neovascular formation and avascular area were measured as described in Connor, et al. Nat Protoc 2009, 4:1565-1573. […]

Data set [2] deals with TNF-alpha, IL-1beta and IL-6. Put plainly: LPS-induced endotoxemia: in vivo serum cytokine release. On the set-up: species or system mouse. The note with it: free peptides, at this dose; serum 90 min after 30 mg/kg LPS. Here is the method: One hour later, mice received i.p. injection of 30 mg/kg LPS from E. coli 055:B5 (Sigma). In some experiments, all formulations were i.p. administered 1 and 3 h after LPS injection. The viability of mice was examined hourly. Body weights were measured daily. In all of the animal experiments, blood samples were collected via a sub-mandibular (cheek) bleed at 90 min after administration of LPS. Statistical analysis of survival curves was performed by the Kaplan-Meier test. Comparisons were made using two-tailed Student's t test. The production of cytokines in serum was measured by a standard sandwich cytokine ELISA procedure using TNF-alpha, IL-1beta and IL-6 ELISA kits (Pierce Biotechnology, Thermo Scientific, Rockford, Ill.) according to the instructions of the manufacturer. Statistical significances in cytokine analysis ELISA data were determined by two-tailed Student's t test.
Naïve, female C57BL/6 mice at 8 to 10 weeks of age (18 to 21 g) from the Jackson Laboratory were randomly grouped (10 mice per group) and i.p. injected with vehicle or the indicated doses of dexamethasone (DEX), GF9, G-TE21, G-HV21 and G-KV21. One hour later, mice received i.p. injection of 30 mg/kg LPS from E. coli 055:B5 (Sigma). […] Body weights were measured daily. […] Statistical significances in cytokine analysis ELISA data were determined by two-tailed Student's t test.

Another data set has as its system J774 macrophages. Put plainly: in vitro macrophage uptake (endocytosis) of rho B-labeled peptides and lipopeptide complexes. The data set is classed as cell-based, murine. The note with it: for mechanism of macrophage endocytosis (scavenger receptors): J774, 4 h or 22 h, G-HV21 and G-KV21 in the presence of HDL; for in vitro macrophage uptake, presence vs. absence of HDL: rho B-labeled peptides. Here is the method:
In Vitro Macrophage Uptake of GF9HDL and GA/E31HDL A quantitative in vitro macrophage assay of endo-cytosis of rho B-labeled HDL-mimicking lipopeptide complexes by J774 macrophage was performed as described. (18-20) Briefly, BALB/c murine macrophage J774A.1 cells (ATCC) were cultured at 37° C. with 5% CO2 in Dulbecco's modified Eagle's medium (Cellgro Mediatech, Manassas, Va.) with 2 mM glutamine, 100 U/mL penicillin, 0.1 mg/mL streptomycin, and 10% heat-inactivated fetal bovine serum (Cellgro Mediatech) and grown to approximately 90% confluency in 12-well tissue culture plates (Corning Costar, Corning, N.Y.).
Cells were washed twice using phosphate-buffered saline and lysed using Passive Lysis Buffer (Promega, Madison, Wis.). Rho B fluorescence was measured in the lysates with 544-nm excitation and 590-nm emission filters, using a Fluoroscan Ascent CF fluorescence microplate reader (Thermo Labsystems, Vantaa, Finland). Protein concentrations in the lysates were measured using Bradford reagent (Sigma-Aldrich) and an MRX microplate reader (Dynex Technologies, Chantilly, Va.) according to the manufacturer's recommended protocol.

Consider `CC(C)C[C@H](NC(=O)[C@H](Cc1ccccc1)NC(=O)CN)C(=O)N[C@@H](CO)C(=O)N[C@@H](CCCCN)C(=O)N[C@@H](CO)C(=O)N[C@@H](CC(C)C)C(=O)N[C@H](C(=O)N[C@@H](Cc1ccccc1)C(=O)O)C(C)C` [GF9] (H-GFLSKSLVF-OH), for which, in data set [1] (mouse, in vivo), the “toxicity / tolerability in mouse litters” value was “non-toxic and well-tolerated in mouse litters”.
In the case of `CC(C)C[C@H](NC(=O)[C@H](Cc1ccccc1)NC(=O)CN)C(=O)N[C@@H](CO)C(=O)N[C@@H](CCCCN)C(=O)N[C@@H](CO)C(=O)N[C@@H](CC(C)C)C(=O)N[C@H](C(=O)N[C@@H](Cc1ccccc1)C(=O)NCC(=O)N[C@@H](CCC(=O)O)C(=O)N[C@@H](CCC(=O)O)C(=O)N[C@@H](CC[S+](C)[O-])C(=O)N[C@@H](CCCNC(=N)N)C(=O)N[C@@H](CC(=O)O)C(=O)N[C@@H](CCCNC(=N)N)C(=O)N[C@@H](C)C(=O)N[C@@H](CCCNC(=N)N)C(=O)N[C@@H](C)C(=O)N[C@@H](Cc1c[nH]cn1)C(=O)N[C@H](C(=O)O)C(C)C)C(C)C` (some centres unmarked) [G-HV21] (HELM PEPTIDE1{G.F.L.S.K.S.L.V.F.G.E.E.[CS(=O)CC[C@H](N[*:1])C(=O)[*:2]].R.D.R.A.R.A.H.V}$$$$V2.0), in data set [2], the “LPS-stimulated cytokine production in vivo” value is listed as “inhibit LPS-stimulated cytokine production in vivo”. For the same compound, in the data set with J774 macrophages, the “mechanism of macrophage endocytosis (scavenger receptors)” value is “SR-mediated in a time-dependent manner and is largely driven by SR-A”; the “in vitro macrophage uptake, presence vs. absence of HDL” value was “significantly increases”.
Turning to `CC(C)C[C@H](NC(=O)[C@H](Cc1ccccc1)NC(=O)CN)C(=O)N[C@@H](CO)C(=O)N[C@@H](CCCCN)C(=O)N[C@@H](CO)C(=O)N[C@@H](CC(C)C)C(=O)N[C@H](C(=O)N[C@@H](Cc1ccccc1)C(=O)N[C@@H](Cc1c[nH]c2ccccc12)C(=O)N[C@@H](CCC(N)=O)C(=O)N[C@@H](CCC(=O)O)C(=O)N[C@@H](CCC(=O)O)C(=O)N[C@@H](CC[S+](C)[O-])C(=O)N[C@@H](CCC(=O)O)C(=O)N[C@@H](CC(C)C)C(=O)N[C@@H](Cc1ccc(O)cc1)C(=O)N[C@@H](CCCNC(=N)N)C(=O)N[C@@H](CCC(N)=O)C(=O)N[C@@H](CCCCN)C(=O)N[C@H](C(=O)O)C(C)C)C(C)C` (some centres unmarked) [G-KV21] (HELM PEPTIDE1{G.F.L.S.K.S.L.V.F.W.Q.E.E.[CS(=O)CC[C@H](N[*:1])C(=O)[*:2]].E.L.Y.R.Q.K.V}$$$$V2.0), the “reduction of pathological RNV” value in data set [1] (free peptides, daily i.p. P7-P17 at indicated doses) was “up to 95%”. Further, the “LPS-stimulated cytokine production in vivo” value in data set [2] is “inhibit LPS-stimulated cytokine production in vivo”. For the same compound, in the data set on J774 macrophages, the “mechanism of macrophage endocytosis (scavenger receptors)” value is “SR-mediated in a time-dependent manner and is largely driven by SR-A”; the “in vitro macrophage uptake, presence vs. absence of HDL” value was “significantly increases”.
